# Read-outs that look alike come from different tables or passages of the source.
# Columns and labels:
# [1] = test system: Pseudomonas aeruginosa; assay: MIC, 25 ocular isolates, broth microdilution (Example 8); format: cell-based
# Method: (§1) • Mueller-Hinton Broth in tubes was inoculated with 25 ocular isolates of Staphylococcus aureus fluoroquinolone-susceptible, Staphylococcus aureus fluoroquinolone-resistant, Staphylococcus epidermidis (Coagulase-negative Staphylococcus) fluoroquinolone-susceptible, Staphylococcus epidermidis (Coagulase-negative Staphylococcus) fluoroquinolone-resistant, Pseudomonas aeruginosa and Serratia marcescens, plus two controls (Staphylococcus aureus and E. coli) and incubated at 37° C. overnight on a shaker set at 250 rpm.
# (§2) On the day of testing, a 640 μg/ml (1280 μg/ml for Serratia marcescens and Pseudomonas aeruginosa) concentration was prepared from a 1% stock solution in 0.01% acetic acid, 0.2% BSA in polypropylene tubes.
# (§3) Serial doubling dilutions in 0.01% acetic acid, 0.2% BSA in 96 well polypropylene plates, which are used as reservoirs for the inoculation of the test plates, were carried out to obtain serial dilutions of test agents at 10 times the required test concentrations: 640, 320, 160, 80, 40, 20, 10, 5, 2.5, 1.25, and 0.625 μg/ml (1280, 640, 320, 160, 80, 40, 20, 10, 5, 2.5, and 1.25 μg/ml for Serratia marcescens and Pseudomonas aeruginosa).
# (§4) Ten μl of diluted 10×test agents was added to each well of one row of the 96 well polypropylene plates from column 2 to column 12 (column 1 is a control for bacteria alone, with no peptide). Test agent concentrations in columns 2-12 were as follows: 64, 32, 16, 8, 4, 2, 1, 0.5, 0.25, 0.125, and 0.0625 μg/ml (128, 64, 32, 16, 8, 4, 2, 1, 0.5, 0.25, and 0.125 μg/ml for Serratia marcescens and Pseudomonas aeruginosa). The same peptide was in each of the 8 rows. One plate contained dilutions of one test agent and 8 bacterial isolates.
# (§5) On the day of testing, the overnight bacterial broth cultures of Staphylococcus aureus fluoroquinolone-susceptible, Staphylococcus aureus fluoroquinolone-resistant, Staphylococcus epidermidis (Coagulase-negative Staphylococcus) fluoroquinolone-susceptible, Staphylococcus epidermidis (Coagulase-negative Staphylococcus) fluoroquinolone-resistant, Serratia marcescens, and Pseudomonas aeruginosa, plus two controls (Staphylococcus aureus and E. coli) were diluted in 5 ml of trypticase soy broth to yield turbidity equal to a 0.5 McFarland standard. The final inoculum for MIC testing for Staphylococcus aureus fluoroquinolone-susceptible, Staphylococcus aureus fluoroquinolone-resistant, Staphylococcus epidermidis (Coagulase-negative Staphylococcus) fluoroquinolone-susceptible, Staphylococcus epidermidis (Coagulase-negative Staphylococcus) fluoroquinolone-resistant, Serratia marcescens, and Pseudomonas aeruginosa was achieved by placing 0.05 ml of the turbidity adjusted sample to 5 ml of Mueller-Hinton broth.
# (§6) Ninety μl of the bacterial suspensions was dispensed in each well from column 1 to column 12. Each bacterial isolate was placed in one row of a 96 well polypropylene plate containing the test agents. The plates were placed on shaker at 15 minutes at room temperature, and then incubated at 37° C. overnight. MICs were determined visually as the lowest concentration of drug that inhibits visible bacterial growth.
# [2] = test system: Staphylococcus epidermidis (Coagulase-negative Staphylococcus) fluoroquinolone-susceptible; assay: as above; format: cell-based
# Method: as §1, §2, §3, §4, §5, §6
smiles,measurement,setting,value
N=C(N)NCCCCC(=O)Nc1cc(C(F)(F)F)cc(NC(=O)c2cc(C(=O)Nc3cc(C(F)(F)F)cc(NC(=O)CCCCNC(=N)N)c3O[C@@H]3CCNC3)ncn2)c1O[C@@H]1CCNC1 [Oligomer 4],MIC50,"[1]; 25 isolates, Row 13",4 µg/mL
same,Range of MICs,"[1]; 25 isolates, Summary of Results, >128 was Replaced with 256",0.5 to 8 µg/mL
same,MIC,"[1]; Pseudomonas aeruginosa, 25 ocular isolates, read-out: Median MIC",4 µg/mL
same,MIC,"[1]; Pseudomonas aeruginosa, isolate 1—K1673, read-out: MIC",2 µg/mL
same,MIC,"[1]; Pseudomonas aeruginosa, isolate 2—K1668, read-out: MIC",2 µg/mL
same,MIC,"[1]; Pseudomonas aeruginosa, isolate 3—K1662, read-out: MIC",2 µg/mL
same,MIC,"[1]; Pseudomonas aeruginosa, isolate 4—K1657, read-out: MIC",2 µg/mL
same,MIC,"[1]; Pseudomonas aeruginosa, isolate 5—K1651, read-out: MIC",4 µg/mL
same,MIC,"[1]; Pseudomonas aeruginosa, isolate 6—K1649, read-out: MIC",4 µg/mL
same,MIC,"[1]; Pseudomonas aeruginosa, isolate 7—K1564, read-out: MIC",8 µg/mL
same,MIC,"[1]; Pseudomonas aeruginosa, isolate 8—K1636, read-out: MIC",0.5 µg/mL
same,MIC,"[1]; Pseudomonas aeruginosa, isolate 9—K1634, read-out: MIC",2 µg/mL
same,MIC,"[1]; Pseudomonas aeruginosa, isolate 10—K1633, read-out: MIC",4 µg/mL
same,MIC,"[1]; Pseudomonas aeruginosa, isolate 11—K1632, read-out: MIC",4 µg/mL
same,MIC,"[1]; Pseudomonas aeruginosa, isolate 12—K1631, read-out: MIC",8 µg/mL
same,MIC,"[1]; Pseudomonas aeruginosa, isolate 13—K1629, read-out: MIC",4 µg/mL
same,MIC,"[1]; Pseudomonas aeruginosa, isolate 14—K1627, read-out: MIC",2 µg/mL
same,MIC,"[1]; Pseudomonas aeruginosa, isolate 15—K1626, read-out: MIC",8 µg/mL
same,MIC,"[1]; Pseudomonas aeruginosa, isolate 16—K1625, read-out: MIC",4 µg/mL
same,MIC,"[1]; Pseudomonas aeruginosa, isolate 17—K1562, read-out: MIC",4 µg/mL
same,MIC,"[1]; Pseudomonas aeruginosa, isolate 18—K1613, read-out: MIC",4 µg/mL
same,MIC,"[1]; Pseudomonas aeruginosa, isolate 19—K1553, read-out: MIC",2 µg/mL
same,MIC,"[1]; Pseudomonas aeruginosa, isolate 20—K1594, read-out: MIC",2 µg/mL
same,MIC,"[1]; Pseudomonas aeruginosa, isolate 21—K1588, read-out: MIC",4 µg/mL
same,MIC,"[1]; Pseudomonas aeruginosa, isolate 22—K1554, read-out: MIC",4 µg/mL
same,MIC,"[1]; Pseudomonas aeruginosa, isolate 23—K1580, read-out: MIC",2 µg/mL
same,MIC,"[1]; Pseudomonas aeruginosa, isolate 24—K1577, read-out: MIC",2 µg/mL
same,MIC,"[1]; Pseudomonas aeruginosa, isolate 25—K1576, read-out: MIC",4 µg/mL
same,MIC,"[1]; Pseudomonas aeruginosa, n=25 per group, read-out: Median MIC",4 µg/mL
same,MIC50,"[1]; Pseudomonas aeruginosa, 25 isolates, Summary of Results, read-out: MIC50",4 µg/mL
same,MIC90,"[1]; Pseudomonas aeruginosa, 25 isolates, Summary of Results, read-out: MIC90",4 µg/mL
same,MIC,"[1]; Pseudomonas aeruginosa, 25 isolates, Summary of Results, read-out: Median MIC",4 µg/mL
same,MIC50,[1]; n=25 per group,4 µg/mL
same,MIC90,[1]; n=25 per group,4 µg/mL
same,Range of MICs,[1]; n=25 per group,0.5 to 8 µg/mL
same,"MIC, sorted list for MIC50 and MIC90 Determinations (QSSE-A)","[2]; 25 isolates sorted ascending, Row 1-25, <0.0625 was Replaced with 0.03125",0.25 µg/mL
same,MIC50,"[2]; 25 isolates, Row 13",0.125 µg/mL
same,MIC90,"[2]; 25 isolates, Row 22",0.25 µg/mL
same,Range of MICs,"[2]; 25 isolates, Summary of Results, <0.0625 was Replaced with 0.03125",0.03125 to 0.25 µg/mL
same,MIC,"[2]; Staphylococcus epidermidis, 25 ocular isolates, read-out: Median MIC",≤ 0.25 µg/mL
same,MIC,"[2]; Staphylococcus epidermidis, isolate 1—E511, read-out: MIC",0.25 µg/mL
same,MIC,"[2]; Staphylococcus epidermidis, isolate 2—E489, read-out: MIC",0.125 µg/mL
same,MIC,"[2]; Staphylococcus epidermidis, isolate 3—E491, read-out: MIC",0.125 µg/mL
same,MIC,"[2]; Staphylococcus epidermidis, isolate 4—E476, read-out: MIC",0.25 µg/mL
same,MIC,"[2]; Staphylococcus epidermidis, isolate 5—E473, read-out: MIC",0.25 µg/mL
same,MIC,"[2]; Staphylococcus epidermidis, isolate 6—E462, read-out: MIC",0.125 µg/mL
same,MIC,"[2]; Staphylococcus epidermidis, isolate 7—E460, read-out: MIC",0.125 µg/mL
same,MIC,"[2]; Staphylococcus epidermidis, isolate 8—E453, read-out: MIC",0.125 µg/mL
same,MIC,"[2]; Staphylococcus epidermidis, isolate 9—E448, read-out: MIC",0.125 µg/mL
same,MIC,"[2]; Staphylococcus epidermidis, isolate 10—E443, read-out: MIC",< 0.0625 µg/mL
same,MIC,"[2]; Staphylococcus epidermidis, isolate 11—E441, read-out: MIC",< 0.0625 µg/mL
same,MIC,"[2]; Staphylococcus epidermidis, isolate 12—E438, read-out: MIC",0.125 µg/mL
same,MIC,"[2]; Staphylococcus epidermidis, isolate 13—E437, read-out: MIC",0.125 µg/mL
same,MIC,"[2]; Staphylococcus epidermidis, isolate 14—E434, read-out: MIC",0.125 µg/mL
same,MIC,"[2]; Staphylococcus epidermidis, isolate 15—E433, read-out: MIC",0.125 µg/mL
same,MIC,"[2]; Staphylococcus epidermidis, isolate 16—E430, read-out: MIC",< 0.0625 µg/mL
same,MIC,"[2]; Staphylococcus epidermidis, isolate 17—E420, read-out: MIC",0.125 µg/mL
same,MIC,"[2]; Staphylococcus epidermidis, isolate 18—E419, read-out: MIC",0.125 µg/mL
same,MIC,"[2]; Staphylococcus epidermidis, isolate 19—E403, read-out: MIC",0.125 µg/mL
same,MIC,"[2]; Staphylococcus epidermidis, isolate 20—E394, read-out: MIC",0.125 µg/mL
same,MIC,"[2]; Staphylococcus epidermidis, isolate 21—E393, read-out: MIC",0.125 µg/mL
same,MIC,"[2]; Staphylococcus epidermidis, isolate 22—E328, read-out: MIC",0.25 µg/mL
same,MIC,"[2]; Staphylococcus epidermidis, isolate 23—E382, read-out: MIC",0.125 µg/mL
same,MIC,"[2]; Staphylococcus epidermidis, isolate 24—E381, read-out: MIC",0.125 µg/mL
same,MIC,"[2]; Staphylococcus epidermidis, isolate 25—E372, read-out: MIC",0.25 µg/mL
same,MIC,"[2]; Staphylococcus epidermidis, n=25 per group, read-out: Median MIC",0.125 µg/mL
same,MIC50,"[2]; Staphylococcus epidermidis, 25 isolates, Summary of Results, read-out: MIC50",0.125 µg/mL
same,MIC90,"[2]; Staphylococcus epidermidis, 25 isolates, Summary of Results, read-out: MIC90",0.25 µg/mL
same,MIC,"[2]; Staphylococcus epidermidis, 25 isolates, Summary of Results, read-out: Median MIC",0.125 µg/mL
same,MIC50,[2]; n=25 per group,0.125 µg/mL
same,MIC90,[2]; n=25 per group,0.25 µg/mL
same,Range of MICs,[2]; n=25 per group,0.03125 to 0.25 µg/mL

# — patent US20130065818A1, “Arylamide Compounds And Compositions And Uses Thereof” (POLYMEDIX, priority 2006, published 2013)
